In patent US8889130B2, “Treatment of osteoarthritis and pain” (Abbvie Inc., priority 2011, dated 2014):

Columns and labels:
mice (male CD1) = assay: L5/L6 spinal nerve ligation (SNL) model of neuropathic pain, mechanical allodynia; assay type: in vivo; conditions: mAbs 900 μg/mouse each, gabapentin 100 mg/kg, 1 hour pretreatment
Method: Whether an anti-IL-1α and anti-IL-1β mAb combination therapy would produce efficacy in neuropathic pain conditions was examined in an L5/L6 spinal nerve ligation (SNL) model in mice (male CD1). Testing was performed six days after SNL surgery, 24 and 72 hours after animals were treated with mAb combination (900 μg/mouse of each mAb). […] The magnitude of efficacy (% MPE) was 72.20±14.39% at 24 hours and 80.62±12.33% at 72 hours (FIG. 19).

human OA patients = conditions: literature (Cohen et al., ACR 2007); cited from earlier work
female BALB/c mice = assay: CFA (Complete Freund's Adjuvant) inflammatory pain model, mechanical allodynia (von Frey); assay type: in vivo, mouse; conditions: 48 hours after CFA, diclofenac 30 mg/kg
Method: The CFA (Complete Freund's Adjuvant) inflammatory pain model was used to test whether the anti-IL-1α and anti-IL-1β mAb combination would produce efficacy against a mechanical endpoint. Therefore, mechanical allodynia was assessed using von Frey monofilaments in animals (female BALB/c mice) 48 hours after they were injected intraplantar with CFA. […] Separate groups of animals were treated either with IgG isotype control or a combination of anti-IL-1α and anti-IL-1β mAbs (900 μg/mouse of each mAb) 30 hours after CFA injection. […] The magnitude of efficacy (% MPE) was 65.51±12.35% (FIG. 17B).

mice (female BALB/c) = assay: Mouse carrageenan-induced inflammatory pain model, thermal hyperalgesia (paw withdrawal latency); assay type: in vivo; conditions: for thermal hyperalgesia / antinociceptive effect: Example 8, 48 and 96 hours, single mAb 900 μg, diclofenac 30 mg/kg; for paw withdrawal latency, carrageenan (injured) paw: mAbs 900 μg each at 30 hours, diclofenac 30 mg/kg p.o. 60 minutes before testing
Method: To evaluate whether neutralization of IL-1α and IL-1β produces antinociceptive effects in inflammatory pain conditions, anti-IL-1α and anti-IL-1β mAbs were evaluated for the ability to reverse established pain in the mouse carrageenan paw model of nociceptive pain.
The efficacy of the anti-IL-1α and anti-IL-1β mAbs was evaluated when administered alone or in combination in the mouse carrageenan model (FIG. 15). At 30 hours after intraplantar carrageenan injection: 900 μg of either anti-IL-1α mAb, anti-IL-1β mAb, or their combination were administered in different groups of mice. Thermal hyperalgesia testing was performed 48 and 96 hours after carrageenan. […] The antinociceptive effect in 900 μg combination group was 53±7% at 48 hours, and 82±11% at 96 hours.
Different groups of animals were treated either with vehicle or a combination of anti-IL-1α and anti-IL-1β mAbs (100, 300, or 900 μg/mouse of each mAb) 30 hours after carrageenan injection. […] The antinociceptive effect in 900 μg treatment group was 70±9% at 48 hours, and 62±4% at 96 hours. Diclofenac (30 mg/kg), a non-steroidal, anti-inflammatory analgesic, was included as positive control in the study, and it increased the mean paw withdrawal latency of the injured paw to 7.01±0.58 s at 48 hours and 7.48±0.34 s at 96 hours when administered p.o. 60 minutes before testing (p<0.01 at both time points).

Male SV129 mice = assay: Destabilization of medial meniscus (DMM) model of osteoarthritis, cartilage degeneration (Chambers scores); assay type: in vivo, mouse; conditions: Example 3.3.6 (FIG. 7); 8 weeks; mAbs 6 mg/kg alone or in combination
Source text: (§1) Male SV129 mice weighing approximately 30 grams, housed 5/cage, were anesthetized on Day 0 with ketamine/xylazine cocktail, administered intraperitoneally (ip), and then the medial collateral ligament was exposed by blunt dissection, and transected to reflect the meniscus toward the femur. The joint space was closed with 8-0 vicryl suture. The skin was closed with wound glue. For sham surgeries, a vertical skin incision was made over the medial aspect of the knee and the joint capsule was opened. The capsule was closed with 8-0 vicryl suture and the skin was closed with wound glue. Groups of animals were then treated with intraperitoneal (ip) injections of antibody or vehicle according to the study design table below. Two sex-matched, age-matched, and strain-matched naïve mice were also included in the study. Animals were euthanized after 8 weeks of treatment, and knee joints were harvested in 10% neutral buffered formalin.
Formalin-fixed samples were decalcified, and specimens were sectioned in the frontal plane into 15 step sections each. Each section was approximately 6 μm thick, and step sections were separated by 70 μm. All slides were stained with toluidine blue (T. Blue). Slides were assessed according to the Chambers method (Chambers et al. (2001) Arthritis Rheum 44:1455-65) for cartilage degeneration (see below) by a board-certified veterinary pathologist. Each of the four cartilage surfaces, the medial femoral condyle (MFC), the medial tibial plateau (MTP), the lateral femoral condyle (LFC), and the lateral tibial plateau (LTP), was scored from 0-6 according to the scale in the table below.
as §1, with “8-0 vicryl suture, and the” for “8-0 vicryl suture and the”, “injections of anti-mIL-1α monoclonal antibody, anti-mIL-1β (alone or in combination), mIL-1α/βDVD-Ig binding protein, or vehicle” for “injections of antibody or vehicle”, “design table below (Table 24). Animals were” for “design table below. Two sex-matched, age-matched, and strain-matched naïve mice were also included in the study. Animals were”, “weeks of treatment and knee” for “weeks of treatment, and knee”
Male SV129 mice weighing approximately 30 grams had the medial collateral ligament exposed by blunt dissection, and transected to reflect the meniscus toward the femur. The joint space was closed with 8-0 vicryl suture. The skin was closed with wound glue. For sham surgeries, a vertical skin incision was made over the medial aspect of the knee and the joint capsule was opened. The capsule was closed with 8-0 vicryl suture, and the skin was closed with wound glue. Groups of animals were then treated per os (po) or via intraperitoneal (ip) injections of vehicle or treatments according to the study design table below. Three sex-matched, age-matched, and strain-matched naïve mice were also included in the study. Animals were euthanized after 4 weeks of treatment, and knee joints were harvested in 10% neutral buffered formalin.

DMM mice = assay: DMM model of osteoarthritis, mechanical allodynia (paw withdrawal threshold); assay type: in vivo, mouse; conditions: Example 5 (FIG. 12); 6 mg/kg ip twice per week for four weeks; day 28
Method: The DMM model also generates measurable pain in the mice. […] The efficacy of anti-IL-1α/β therapy was studied in the DMM animal model.
The potential of anti-IL-1 therapy to ameliorate pain was tested in the DMM mouse model of OA in terms of mechanical allodynia. Dosing of the combination of IL-1α and IL-1β mAbs was initiated on the day of the surgery and was repeated twice a week for 5 weeks. Animals were treated with PBS vehicle alone, with an IgG isotype control, or with a combination of anti-IL-1α and anti-IL-1β mAbs (at a dose of 6 mg/kg for each mAb). Animals were tested weekly for paw withdrawal threshold. […] This reduction in pain was seen as early as week 1 following treatment (data not shown).
To evaluate the effect of IL-1 therapy in established pain, animals in the IgG control group with established OA and mechanical allodynia were treated on day 35 with the combination of anti-IL-1α and anti-IL-1β monoclonal antibodies and the paw withdrawal threshold was tested 24 hours later (day 36).
The potential of anti-IL-1 therapy to ameliorate pain in the DMM mouse model of OA (see, above) in terms of mechanical allodynia was further evaluated. Dosing of the combination of IL-1α and IL-1β mAbs was initiated on the day of the surgery and was repeated twice a week for 4 weeks. […]

male DBA-1 mice = assay: Collagen-induced arthritis mouse model (rheumatoid arthritis); assay type: in vivo; conditions: therapeutic mode; 1-3 mg/kg intraperitoneally every other day after disease onset
Method: The therapeutic effects of anti-IL-1α, anti-IL-1β, combined anti-IL-1α/anti-IL-1β, and murine IL-1α/β DVD4-Ig, were evaluated in a collagen-induced arthritis mouse model well known in the art. Briefly, male DBA-1 mice were immunized with bovine type II collagen in CFA at the base of the tail. The mice were boosted with Zymosan intraperitoneally (i.p) at day 21. After disease onset at day 24-27, mice were selected and divided into separate groups of 10 mice each. […] To neutralize IL-1, mice were injected every other day with 1-3 mg/kg of anti-IL-1α mAb, anti-IL-1βmAb, combination of anti-IL-1α and anti-IL-1β mAbs, or murine IL-1α/β DVD4-Ig intraperitoneally. Mice were carefully examined three times a week for the visual appearance of arthritis in peripheral joints, and scores for disease activity determined.

NCC1(CC(=O)O)CCCCC1 [gabapentin]
paw withdrawal threshold (von Frey) (mice (male CD1); at 24 hours): 0.858 ± 0.077 g
paw withdrawal threshold (von Frey) (mice (male CD1); at 72 hours): 1.138 ± 0.096 g

Anakinra: IL-1 receptor antagonist
efficacy in OA trials with respect to symptoms and chondroprotection (human OA patients): some efficacy

O=C(O)Cc1ccccc1Nc1c(Cl)cccc1Cl [Diclofenac]
paw withdrawal threshold, CFA injected paw (female BALB/c mice; mAbs 900 μg/mouse each 30 hours after CFA, 1 hour pretreatment): 0.359 ± 0.088 g
magnitude of efficacy (% MPE) (female BALB/c mice; mAbs 900 μg/mouse each): 64.51±10.20%
thermal hyperalgesia / antinociceptive effect (mice (female BALB/c)): significant attenuation of thermal hyperalgesia
paw withdrawal latency, carrageenan (injured) paw (mice (female BALB/c); Example 9 (FIG. 16A), at 48 hours): 7.01 ± 0.58 s
paw withdrawal latency, carrageenan (injured) paw (mice (female BALB/c); Example 9 (FIG. 16B), at 96 hours): 7.48 ± 0.34 s

B1: 9H10: mouse anti-mouse IL-1α monoclonal antibody (clone 9H10) from IL-1α/β double KO mice (antibody, V domains shown)
VH: QVILKESGPGILQPSQTLSLTCSFSGFSLSTYGTAVNWIRQPSGKGLEWLAQIGSDDRKLYNPFLKSRITLSEDTSNSQVFLKITSVDTEDSATYYCANGVMEYWGLGTSVTVSS
VL: SIVMTQTPKFLLVSAGDRVTITCKASQSVNHDVAWYQQMPGQSPKLLIYFASNRYTGVPDRFTGSGYGTDFTFTISTVQAEDLAVYFCQQDYSSPYTFGGGTKLEIKR
modifications: heavy chain variable domain of 9H10; light chain variable domain of 9H10
notes: mouse anti-mouse IL-1α monoclonal antibody (clone 9H10) from IL-1α/β double KO mice
mean sum Chambers scores and mean maximum Chambers scores (cartilage degeneration) (Male SV129 mice): not statistically significant
paw withdrawal threshold (allodynia) (DMM mice): allodynic (painful)
thermal hyperalgesia / antinociceptive effect (mice (female BALB/c)): no significant antinociceptive effect
reduction in mean arthritis score compared to control group (male DBA-1 mice): 10%
